# Several values for one entry are separate records, joined by “and”; a condition that tells them apart may be missing. Equal values may be shown once. Activity calls are given as the source filed them.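 How the source made its calls: active means compounds giving half or more protection of infected cells from virus-caused growth loss, again on retest; inactive means the rest.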
# Test system: CEM cells HIV-1 protection, formazan growth assay
# Assay: NCI AIDS Antiviral Assay
# Conditions: for IC50: measured here: growth of uninfected CEM cells
# Outline: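 Category rules: moderately active means at least 50% protection on retest, and confirmed active means 100% protection reproducibly. The underlying data came from a formazan growth assay in HIV-1-infected CEM cells.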
Structure (SMILES),EC50,IC50,outcome
O=C1CS(=O)(=O)C2(CCCCC2)C(=O)N1,> 200 µM,> 200 µM,–
CCOC(=O)c1c2nc3ccccc3sc-2c(C(=O)OCC)c1C(=O)OCC,> 20 µM,0.977 µM,–
Nc1nc(Cl)cc(OCC2(O)CC(COC(=O)c3ccccc3)C2)n1 (stereo not drawn),> 200 µM,60.3 µM,–
COc1ccc(C(CC(=O)c2ccc3c(c2)OCO3)C(=O)O)cc1OC (stereo not drawn),–,–,inactive
O=C(O)C12C3CCC(CC3)C1(C(=O)O)C1CCC2C1 (stereo not drawn),> 200 µM,> 200 µM,–
CSC(=Nc1ccccc1Cl)NC(=O)c1ccc(Br)cc1,> 10.2 µM,> 10.2 µM,–
N#CC(C#N)[C@@H]1CCC=C(Sc2ccccc2)[C@H]1Sc1ccccc1,> 20 µM,3.63 µM,–
CC[C@H]1C[C@@H](O)[C@@H]2[C@H](O)[C@H](O)CN2C1,> 200 µM,> 200 µM,–
CCOC(=O)C(c1ccccc1)[N+](C)(C)C (stereo not drawn),> 200 µM,> 200 µM,–
COc1ccc(N2C(=O)/C(=C\c3cccc(Oc4ccccc4)c3)S(=O)(=O)C2c2ccccc2)cc1 (stereo not drawn),> 200 µM,28.8 µM,–
O=C1CN=C(c2ccccc2)c2cc(Cl)ccc2N1,> 26.3 µM,> 26.3 µM,–
O=[N+]([O-])c1ccc(SSc2ccc([N+](=O)[O-])cc2)cc1,> 200 µM,24 µM,inactive
Nc1ccc(C2CCC(C(=O)O)N2)cc1 (stereo not drawn),> 200 µM,> 200 µM,–
CCCC[C@H]1[C@@H](OCOc2ccccc2)COC(=O)N1[C@H](C)c1ccccc1,> 200 µM,21.4 µM,–
CCCCCCCCCCCCCCCc1cccc(O)c1C(=O)O,–,–,inactive
Cc1cn(C2CCC(COP(=O)(OCOC(=O)C(C)(C)C)OCOC(=O)C(C)(C)C)O2)c(=O)[nH]c1=O (stereo not drawn),–,–,active
O=C1NC(N/N=C\C(O)C(O)C(O)CO)=N/C1=C/c1ccccc1 (stereo not drawn),> 200 µM and 38 µM,89.1 µM and 105 µM,–
CCOC(=O)C1C(=O)[C@H](C(=O)OC)C2CCCC3CCCC1N32 (stereo partly drawn),> 200 µM,> 200 µM,–
O=C(CCC(=O)Nc1ccc(Cl)c(Cl)c1)CC(=O)c1ccc(F)cc1,> 67.6 µM,> 67.6 µM,–
O=c1ccc2nc3cc(Br)ccc3sc-2c1,> 24.5 µM,> 24.5 µM,–
COc1ccc(OC)c(/C=C/c2cnnc3ccccc23)c1,> 64.6 µM,3.16 µM,–
OC1C2C3CCC(C3)C2C(O)C2C3CCC(C3)C12 (stereo not drawn),> 200 µM,> 200 µM,–
CN(C)C(=O)c1cccc(COc2ccc(N3C(N)=NC(N)=NC3(C)C)cc2Cl)c1,> 468 µM,0.148 µM,–

Structure (SMILES),EC50,IC50,outcome
Cc1nn2c(=O)c3c([N+](=O)[O-])c(C)nn3c(=O)c2c1[N+](=O)[O-],> 562 µM,> 562 µM,–
CCOC(=O)C(CCN1CCC2(CC1)C(=O)N(C)CN2c1ccccc1)C(=O)OCC,> 200 µM,> 200 µM,–
NC1=NS(=O)(=O)Nc2nc(-c3ccc([N+](=O)[O-])o3)[nH]c21,> 200 µM,10 µM,–
CCCCN=C(c1ccccc1)N1CCOCC1,> 200 µM,> 200 µM,–
COc1ccc(C(=CCC(C)C2CCC3[C@@H]4C(OC(C)=O)CC5CC(OC(C)=O)CC[C@]5(C)C4CC(OC(C)=O)[C@]23C)c2ccc(OC)cc2)cc1 (stereo partly drawn),> 200 µM,95.5 µM,–
C=CCC1C(=O)Nc2cccc3ncn(c23)C1=O (stereo not drawn),> 200 µM,186 µM,–
O=C(CC(C(=O)c1cccs1)c1cccs1)c1ccsc1 (stereo not drawn),> 200 µM,11.7 µM,–
COC(=O)c1c(NC(=O)C(C)C)n[nH]c1NC(=O)C(C)C,–,–,inactive
COC1=C(C(=O)OC(C)(C)C)C2C(C(=O)OC(C)(C)C)C(OC)=C(C(=O)OC(C)(C)C)C2C1C(=O)OC(C)(C)C (stereo not drawn),> 31.6 µM,17 µM,–
[O-]c1on[n+]2c1CCCC2,–,–,inactive
COc1cc(C2=NN(C)C(c3ccc([N+](=O)[O-])o3)C2)cc(OC)c1OC (stereo not drawn),> 83.2 µM,32.4 µM,–
COC(=O)C1=C(CS(=O)c2ccccc2[N+](=O)[O-])C2C=CC1C2 (stereo not drawn),–,–,inactive
CCCC1C(C#N)(C#N)C1(C#N)C#N,> 200 µM,2.69 µM,–
N#CN=C(N)NC#N,> 1700 µM,> 1700 µM,–
O=C1CC(C(CC(=O)c2ccccc2)c2ccccc2)C(=O)c2ccccc2N1 (stereo not drawn),> 200 µM,12.6 µM,–
CCN(CC)CCCC(C)Nc1ccnc2cc(Cl)ccc12 (stereo not drawn),–,–,inactive
CC1(C)OC2CC3CC(OC3=O)C2O1 (stereo not drawn),> 832 µM,> 832 µM,–
CN(C)Cc1cc(C(=O)/C=C/c2ccc(Cl)c(Cl)c2)cc(CN(C)C)c1O,> 200 µM,2.75 µM,–
O=C1CC2C3CC4CC(C3)CC2(C4)O1 (stereo not drawn),> 200 µM,> 200 µM,–
C[N+]12CN3CN(C1)S(=O)(=O)N(C3)C2,–,–,inactive
Cc1nc2c(=O)n(-c3ccccc3)c3ccccc3c2o1,> 200 µM,145 µM,–
O=C(OC[C@H]1C[C@H]2C(=O)CCC[C@H]2O1)c1ccccc1,> 200 µM,> 200 µM,–
O=C(O)c1cnccc1-c1cc(=O)[nH]n1-c1ccccc1,> 200 µM,30.2 µM,–

Structure (SMILES),EC50,IC50,outcome
C[C@@H](c1ccccc1)N1CO[C@@]2(C#Cc3ccc4c(c3)OCO4)CCC[C@@H]12,> 200 µM,33.1 µM,–
CCC1=NC(C(F)(F)F)(C(F)(F)F)N=C(N2CCOCC2)O1,> 200 µM,> 200 µM,–
O=S(=O)(c1ccccc1)n1cnc(CCc2ccccc2)n1,> 794 µM,> 794 µM,–
O=C1C2=C(c3ccccc31)C(c1ccccc1)NC(=S)N2 (stereo not drawn),> 89.1 µM,37.2 µM,–
CCOC(=O)c1ccc(-n2[nH]c(=O)ccc2=O)cc1,> 191 µM,> 191 µM,–
O=C(Nc1ccccc1C(=O)O)/C(=C/c1ccccc1)NC(=O)c1ccccc1,> 200 µM,> 200 µM,–
COc1ccc(/C=C2/C(=O)C(c3ccccc3)N(c3ccccc3)C2=O)cc1OC (stereo not drawn),> 200 µM,107 µM,–
NC(=Nc1ccc(O)cc1)S(=O)(=O)O,63.1 µM,97.7 µM,–
O=[N+]([O-])c1ccc(N=NN2CCCC2)cc1,> 200 µM,18.6 µM,–
O=c1[nH][nH]c(=O)n1Cc1ccccc1,> 200 µM,> 200 µM,–
COc1cccc(CC2Cc3ccccc3CC(=O)N2)c1 (stereo not drawn),> 200 µM,38 µM,–
CC1(C)CC(=O)C2=C(C1)OC1(CC2c2ccc(Cl)cc2)CC(c2ccc(Cl)cc2)C2=C(CC(C)(C)CC2=O)O1 (stereo not drawn),> 100 µM,15.1 µM,–
CCOC(=O)C(=Cc1cccnc1C)C(=O)OCC,> 692 µM,8.32 µM,–
C=CCSSSCC=C,> 120 µM,63.1 µM,–
O=C(NCCN1CCCCC1)c1cccc(I)c1,> 200 µM,> 200 µM,–
CN(C)c1ccc(/C=C(\C#N)c2ccc(Br)cc2)cc1,> 100 µM,1.35 µM,–
COc1cc(C(c2ccccc2)N2C(=O)CC[C@H]2C(=O)O)cc(OC)c1OC (stereo partly drawn),> 200 µM,> 200 µM,–
O=C1c2cccc3cc([N+](=O)[O-])cc(c23)C(=O)N1Cc1ccccc1,> 200 µM,5.75 µM,–
C/C([O-])=C\[P+](c1ccccc1)(c1ccccc1)c1ccccc1,> 200 µM,105 µM,–
O=[P+](O)c1cccs1,–,–,inactive
CC(CN(C)C)OC(=O)c1cc2ccccc2n1-c1ccccc1 (stereo not drawn),> 200 µM,91.2 µM,–
O=c1[nH]nc(Cc2ccc([N+](=O)[O-])cc2)n1CCO,> 200 µM,> 200 µM,–

# — PubChem BioAssay AID179 (DTP/NCI, 2004)
